# Test results reported in patent US20230096028A1, “BICYCLIC HETEROCYCLYL COMPOUNDS AND USES THEREOF” (Revolution Medicines, Inc., priority 2019, published 2023).
# Where a name gives a salt, the structure may show the parent alone. Read-outs that look alike come from different tables or passages of the source.
# Experiments:
# [1] = target: T1, SOS1 catalytic domain (residues 564-1049) (Homo sapiens, UniProt Q07889); experiment: Mode of Action Assay: inhibition of SOS1 nucleotide exchange activity (SOS1 TR-FRET IC50 Assay)
# T1 sequence (Q07889 564-1049): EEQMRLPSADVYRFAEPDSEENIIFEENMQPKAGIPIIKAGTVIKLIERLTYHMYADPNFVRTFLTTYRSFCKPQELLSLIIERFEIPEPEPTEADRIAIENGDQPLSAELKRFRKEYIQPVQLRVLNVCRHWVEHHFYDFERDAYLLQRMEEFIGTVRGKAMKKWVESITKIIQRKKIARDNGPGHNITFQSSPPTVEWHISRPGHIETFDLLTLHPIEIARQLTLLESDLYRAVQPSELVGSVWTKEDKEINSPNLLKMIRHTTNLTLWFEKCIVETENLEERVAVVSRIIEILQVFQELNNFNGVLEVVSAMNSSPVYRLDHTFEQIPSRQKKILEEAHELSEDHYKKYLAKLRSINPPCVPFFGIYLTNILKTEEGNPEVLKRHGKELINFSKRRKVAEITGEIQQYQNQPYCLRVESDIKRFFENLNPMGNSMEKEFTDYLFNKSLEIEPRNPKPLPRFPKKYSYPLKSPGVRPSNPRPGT
# [2] = target: T1, SOS1 catalytic domain (residues 564-1049); experiment: Potency Assay: binding affinity to SOS1 using Surface Plasmon Resonance (SPR); parameters: SOS1 catalytic domain (residues 564-1049) immobilized on a sensor chip; details: immobilized SOS1 catalytic domain (residues 564-1049), read-out: SOS1 SPR Equilibrium Kd
# Procedure: Data was reported as equilibrium dissociation constant (Kd) values.
# Using a GE Biacore 8K SPR instrument, avi-tagged SOS1 catalytic domain protein was immobilized to a level of approximately 6000 response units (RU) on a streptavidin-coated SPR sensor chip in assay buffer containing 0.01 M HEPES, 0.15 M NaCl and 0.05% v/v Surfactant P20. […] For each test compound, a separate 0 μM sample was generated for use during subsequent double reference subtraction. Serially for each test compound, individual dilution samples were flowed over the immobilized SOS1 protein at a flow rate of 50 μL/minute to monitor the association with SOS1. Dissociation of bound test compound from the SOS1 protein was immediately monitored by flowing assay buffer over the sensor surface and monitoring the decrease in binding signal back to the baseline level seen in the absence of compound. This was repeated for all compound dilutions in each series. The binding level response for each test compound concentration was noted immediately prior to the end of the association phase, and a secondary plot generated showing binding response level versus test compound concentration generated for each compound dilution series.
# [3] = system: PC-9 cells (EGFR Ex19Del); experiment: Potency Assay: pERK (SOS1 pERK IC50 Assay, AlphaLISA SureFire Ultra p-ERK1/2); format: cell-based; details: Homo sapiens, read-out: SOS1 pERK IC50
# In short: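 PC-9 (EGFR Ex19Del) cells plated overnight, then treated 1 h at 37° C. with 10-point 3-fold dilutions (top 10 μM final) in duplicate. Lysate pERK1/2 measured by AlphaLISA SureFire Ultra; IC50 from 4-parameter sigmoidal fit.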
# [4] = PC-9 cells (EGFR Ex19Del), 1 hour incubation, AlphaLISA p-ERK1/2
IC50 [1] [nM],Kd [2] [nM],"IC50 [3, 4] [nM]",SMILES,"IC50 ([3]; PC-9, 1 h) [nM]"
< 1000,< 400,–,C[C@@H](Nc1nc(Cl)nc2c1CN(S(=O)(=O)N1CCN(C)CC1)C2)c1cc(N)cc(C(F)(F)F)c1 [Example 25],–
–,> 400,–,C[C@@H](Nc1nc(Cl)nc2c1CN(S(=O)(=O)N1CC(C#N)C1)C2)c1cc(N)cc(C(F)(F)F)c1 [Example 26],–
–,< 400,–,C[C@@H](Nc1nc(Cl)nc2c1CN(S(=O)(=O)N1CCNCC1)C2)c1cc(N)cc(C(F)(F)F)c1 [Example 28],–
> 1000,> 400,–,"Cc1nc2c(c(N[C@H](C)c3cc(N)cc(C(F)(F)F)c3)n1)CN(c1ccc(Br)cn1)CC2 [Example 42, N-[(1R)-1-[3-amino-5-(trifluoromethyl)phenyl]ethyl]-6-(5-bromo-2-pyridyl)-2-methyl-7,8-dihydro-5H-pyrido[4,3-d]pyrimidin-4-amine]",–
> 1000,> 400,–,Cc1nc2c(c(N[C@H](C)c3cc(N)cc(C(F)(F)F)c3)n1)CN(C)C2 [Example 43],–
> 1000,> 400,–,"Cc1nc2c(c(N[C@H](C)c3cc(N)cc(C(F)(F)F)c3)n1)CN(c1ccc(Br)cn1)C2 [Example 44, N-[(1R)-1-[3-amino-5-(trifluoromethyl)phenyl]ethyl]-6-(5-bromo-2-pyridyl)-2-methyl-5,7-dihydropyrrolo[3,4-d]pyrimidin-4-amine]",–
> 1000,> 400,–,CCOCCS(=O)(=O)N1Cc2nc(Cl)nc(N[C@H](C)c3cc(N)cc(C(F)(F)F)c3)c2C1 [Example 50],–
> 1000,< 400,–,COc1cc(OC)nc(C(=O)N2Cc3nc(Cl)nc(N[C@H](C)c4cc(N)cc(C(F)(F)F)c4)c3C2)n1 [Example 63],–
> 1000,> 400,–,C[C@@H](Nc1nc(Cl)nc2c1CN(C(=O)c1nccnn1)C2)c1cc(N)cc(C(F)(F)F)c1 [Example 64],–
> 1000,> 400,–,C[C@@H](Nc1nc(Cl)nc2c1CN(C(=O)c1cnccn1)C2)c1cc(N)cc(C(F)(F)F)c1 [Example 66],–
> 1000,> 400,–,COc1cccc(C(=O)N2Cc3nc(Cl)nc(N[C@H](C)c4cc(N)cc(C(F)(F)F)c4)c3C2)n1 [Example 67],–
> 1000,> 400,–,COc1cncc(C(=O)N2Cc3nc(Cl)nc(N[C@H](C)c4cc(N)cc(C(F)(F)F)c4)c3C2)n1 [Example 69],–
< 1000,< 400,–,COc1cccnc1C(=O)N1Cc2nc(Cl)nc(N[C@H](C)c3cc(N)cc(C(F)(F)F)c3)c2C1 [Example 74],–
> 1000,> 400,–,C[C@@H](Nc1nc(Cl)nc2c1CN(C(=O)c1ccc(-n3ccnc3)cn1)C2)c1cc(N)cc(C(F)(F)F)c1 [Example 76],–
–,< 400,–,C[C@@H](Nc1nc(Cl)nc2c1CN(C(=O)C1CC3(CCNCC3)C1)C2)c1cc(N)cc(C(F)(F)F)c1 [Example 79],–
> 1000,> 400,–,C[C@@H](Nc1nc(Cl)nc2c1CN(C(=O)c1ccc3c(n1)OCCO3)C2)c1cc(N)cc(C(F)(F)F)c1 [Example 80],–
< 1000,< 400,–,C[C@@H](Nc1nc(Cl)nc2c1CN(C(=O)C1CC3CCC(C1)O3)C2)c1cc(N)cc(C(F)(F)F)c1 (stereo partly drawn) [Example 81],–
> 1000,> 400,–,C[C@@H](Nc1nc(Cl)nc2c1CN(C(=O)c1csc(N3CCOCC3)n1)C2)c1cc(N)cc(C(F)(F)F)c1 [Example 85],–

IC50 [1] [nM],Kd [2] [nM],"IC50 [3, 4] [nM]",SMILES,"IC50 ([3]; PC-9, 1 h) [nM]"
–,< 400,–,C[C@@H](Nc1nc(Cl)nc2c1CN(C(=O)C1(N)CCCOC1)C2)c1cc(N)cc(C(F)(F)F)c1 (stereo partly drawn) [Example 88],–
–,< 400,–,C[C@@H](Nc1nc(Cl)nc2c1CN(C(=O)C1CC3(CNC3)C1)C2)c1cc(N)cc(C(F)(F)F)c1 [Example 98],–
–,> 400,–,C[C@@H](Nc1nc(Cl)nc2c1CN(C(=O)c1cc3c(s1)CCOC3)C2)c1cc(N)cc(C(F)(F)F)c1 [Example 105],–
–,< 400,–,C[C@@H](Nc1nc(Cl)nc2c1CN(C(=O)C1CC(=O)N(c3ccc4c(c3)OCO4)C1)C2)c1cc(N)cc(C(F)(F)F)c1 (stereo partly drawn) [Example 106],–
–,> 400,–,"COC(=O)N1Cc2nc(C)nc(N[C@H](C)c3cc(N)cc(C(F)(F)F)c3)c2C1 [Example 117, methyl 4-{[(1R)-1-[3-amino-5-(trifluoromethyl)phenyl]ethyl]amino}-2-methyl-5H,6H,7H-pyrrolo[3,4-d]pyrimidine-6-carboxylate]",–
–,< 400,–,C[C@@H](Nc1nc(Cl)nc2c1CN(C(=O)N1CCc3ncncc3C1)C2)c1cc(N)cc(C(F)(F)F)c1 [Example 144],–
–,< 400,–,C[C@@H](Nc1nc(Cl)nc2c1CN(C(=O)N1C[C@H]3COC[C@H]3C1)C2)c1cc(N)cc(C(F)(F)F)c1 [Example 149],–
–,< 400,–,C[C@@H](Nc1nc(Cl)nc2c1CN(C(=O)N1CC3CCC(C1)O3)C2)c1cc(N)cc(C(F)(F)F)c1 [Example 153],–
–,< 400,–,C[C@@H](Nc1nc(Cl)nc2c1CN(C(=O)N1CCC(O)CC1)C2)c1cc(N)cc(C(F)(F)F)c1 [Example 155],–
–,< 400,–,C[C@@H](Nc1nc(Cl)nc2c1CN(C(=O)N1CC3(CCCO3)C1)C2)c1cc(N)cc(C(F)(F)F)c1 [Example 156],–
–,< 400,–,C[C@@H](Nc1nc(Cl)nc2c1CN(C(=O)N1CCC(C)(N)CC1)C2)c1cc(N)cc(C(F)(F)F)c1 [Example 157],–
–,< 400,–,C[C@@H](Nc1nc(Cl)nc2c1CN(C(=O)N1C3CCC1COC3)C2)c1cc(N)cc(C(F)(F)F)c1 [Example 158],–
–,< 400,–,C[C@@H](Nc1nc(Cl)nc2c1CN(C(=O)N1CC[C@H](O)C1)C2)c1cc(N)cc(C(F)(F)F)c1 [Example 161],–
–,< 400,–,C[C@@H]1COC[C@H](C)N1C(=O)N1Cc2nc(Cl)nc(N[C@H](C)c3cc(N)cc(C(F)(F)F)c3)c2C1 [Example 164],–
–,< 400,–,"C[C@@H](Nc1nccc2nc(C(=O)N3CCNCC3)cn12)c1cccc(C(F)F)c1F [Example 530, [5-[[(1R)-1-[3-(difluoromethyl)-2-fluoro-phenyl]ethyl]amino]imidazo[1,2-c]pyrimidin-2-yl]-piperazin-1-yl-methanone hydrochloride]",–
> 1000,–,< 1000,"CC(Nc1nc(Cl)nc2c1CN(C(=O)N1CCOCC1)C2)c1cc(N)c(F)c(C(F)(F)F)c1 (stereo not drawn) [Example 533, [4-[1-[3-amino-4-fluoro-5-(trifluoromethyl)phenyl]ethylamino]-2-chloro-5,7-dihydropyrrolo[3,4-d]pyrimidin-6-yl]-morpholino-methanone]",–
< 1000,–,< 1000,"COCC(F)(F)c1cccc([C@@H](C)Nc2nc(Cl)nc3c2CN(C(=O)C2(OC)CCOCC2)C3)c1 [Example 536, [2-chloro-4-[[(1R)-1-[3-(1,1-difluoro-2-methoxy-ethyl)phenyl]ethyl]amino]-5,7-dihydropyrrolo[3,4-d]pyrimidin-6-yl]-(4-methoxytetrahydropyran-4-yl)methanone]",–

SMILES,IC50 [1] [nM],Kd [2] [nM],"IC50 [3, 4] [nM]","IC50 ([3]; PC-9, 1 h) [nM]"
"C[C@@H](Nc1nc(Cl)nc2c1CN(C(=O)N1CCOCC1)C2)c1cccc(C(F)(F)COC2CC2)c1 [Example 531, [2-chloro-4-[[(1R)-1-[3-[2-(cyclopropoxy)-1,1-difluoro-ethyl]phenyl]ethyl]amino]-5,7-dihydropyrrolo[3,4-d]pyrimidin-6-yl]-morpholino-methanone]",< 1000,–,–,< 1000
"CC(Nc1nc(Cl)nc2c1CN(C(=O)N1CCOCC1)C2)c1ccc(-c2ccccc2)s1 (stereo not drawn) [Example 532, [2-chloro-4-[1-(5-phenyl-2-thienyl)ethylamino]-5,7-dihydropyrrolo[3,4-d]pyrimidin-6-yl]-morpholino-methanone]",> 1000,–,–,> 1000
"CC(Nc1nc(Cl)nc2c1CN(C(=O)N1CCOCC1)C2)c1cccc(C2CC2)c1 (stereo not drawn) [Example 534, [2-chloro-4-[1-(3-cyclopropylphenyl)ethylamino]-5,7-dihydropyrrolo[3,4-d]pyrimidin-6-yl]-morpholino-methanone]",> 1000,–,–,> 1000
"CC(Nc1nc(Cl)nc2c1CN(C(=O)N1CCOCC1)C2)c1cccc(S(N)(=O)=O)c1 (stereo not drawn) [Example 535, 3-[1-[[2-chloro-6-(morpholine-4-carbonyl)-5,7-dihydropyrrolo[3,4-d]pyrimidin-4-yl]amino]ethyl]benzenesulfonamide]",> 1000,–,–,> 1000
